Results as given in ChEMBL document CHEMBL1681651, “A broad spectrum anticancer nucleoside with selective toxicity against human colon cells in vitro” (2011).

Columns and labels:
Type in all cases: functional
HCT-116 = assay: Growth inhibition of human HCT116 cells assessed as cell growth at 1 mM after 48 hrs by SRB assay; conditions: HCT-116, 48 h, read-out: Activity
SK-MEL-2 [1] = assay: Growth inhibition of human SK-MEL-2 cells assessed as cell growth at 0.1 uM after 48 hrs by SRB assay; conditions: SK-MEL-2, 48 h, read-out: Activity
NCI-H322M [2] = assay: Growth inhibition of human NCI-H322M cells assessed as cell growth at 1 mM after 48 hrs by SRB assay; conditions: read-out: Activity
UACC-62 [3] = assay: Growth inhibition of human UACC62 cells assessed as cell growth at 10 uM after 48 hrs by SRB assay; conditions: UACC-62, 48 h, read-out: Activity
IGROV-1 = assay: Growth inhibition of human IGROV1 cells assessed as cell growth at 10 uM after 48 hrs by SRB assay; conditions: IGROV-1, 48 h, read-out: Activity
OVCAR-8 [4] = assay: Growth inhibition of human OVCAR8 cells assessed as cell growth at 100 uM after 48 hrs by SRB assay; conditions: OVCAR-8, 48 h, read-out: Activity
ACHN [5] = assay: Growth inhibition of human ACHN cells assessed as cell growth at 0.1 uM after 48 hrs by SRB assay; conditions: read-out: Activity
SK-MEL-2 [6] = assay: Growth inhibition of human SK-MEL-2 cells assessed as cell growth at 1 mM after 48 hrs by SRB assay; conditions: SK-MEL-2, 48 h, read-out: Activity
NCI-H226 = assay: Growth inhibition of human NCI-H226 cells assessed as cell growth at 0.1 uM after 48 hrs by SRB assay; conditions: NCI-H226, 48 h, read-out: Activity
CAKI-1 = assay: Growth inhibition of human Caki1 cells assessed as cell growth at 100 uM after 48 hrs by SRB assay; conditions: CAKI-1, 48 h, read-out: Activity
UACC-62 [7] = assay: Growth inhibition of human UACC62 cells assessed as cell growth at 1 uM after 48 hrs by SRB assay; conditions: UACC-62, 48 h, read-out: Activity
UACC-257 = assay: Growth inhibition of human UACC257 cells assessed as cell growth at 1 mM after 48 hrs by SRB assay; conditions: UACC-257, 48 h, read-out: Activity
TK-10 [8] = assay: Growth inhibition of human TK10 cells after 48 hrs by […] growth inhibition assay; conditions: TK-10, 48 h
UO-31 = assay: Growth inhibition of human UO31 cells assessed as cell growth at 10 uM after 48 hrs by SRB assay; conditions: UO-31, 48 h, read-out: Activity
SK-MEL-2 [9] = assay: Growth inhibition of human SK-MEL-2 cells after 48 hrs by […] growth inhibition assay; conditions: SK-MEL-2, 48 h
HCT-15 = assay: Growth inhibition of human HCT15 cells assessed as cell growth at 100 uM after 48 hrs by SRB assay; conditions: HCT-15, 48 h, read-out: Activity
OVCAR-5 = assay: Growth inhibition of human OVCAR5 cells assessed as cell growth at 1 uM after 48 hrs by SRB assay; conditions: OVCAR-5, 48 h, read-out: Activity
TK-10 [10] = assay: Growth inhibition of human TK10 cells assessed as cell growth at 0.1 uM after 48 hrs by SRB assay; conditions: TK-10, 48 h, read-out: Activity
SNB-75 = assay: Growth inhibition of human SNB75 cells assessed as cell growth at 0.1 uM after 48 hrs by SRB assay; conditions: SNB-75, 48 h, read-out: Activity
ACHN [11] = assay: Growth inhibition of human ACHN cells assessed as cell growth at 10 uM after 48 hrs by SRB assay; conditions: read-out: Activity
MDA-MB-231 = assay: Growth inhibition of human MDA-MB-231 cells after 48 hrs by […] growth inhibition assay; conditions: MDA-MB-231, 48 h
OVCAR-8 [12] = assay: Growth inhibition of human OVCAR8 cells after 48 hrs by […] growth inhibition assay; conditions: OVCAR-8, 48 h
NCI-H522 = assay: Growth inhibition of human NCI-H522 cells assessed as cell growth at 1 mM after 48 hrs by SRB assay; conditions: NCI-H522, 48 h, read-out: Activity
NCI-H322M [13] = assay: Growth inhibition of human NCI-H322M cells assessed as cell growth at 100 uM after 48 hrs by SRB assay; conditions: read-out: Activity
SN12C = assay: Growth inhibition of human SN12C cells after 48 hrs by […] growth inhibition assay
[14] = Growth inhibition of human […] cells assessed as cell growth at 10 uM after 48 hrs by SRB assay; conditions: read-out: Activity
RXF 393 = assay: Growth inhibition of human RXF393 cells after 48 hrs by […] growth inhibition assay; conditions: RXF 393, 48 h
HT-29 = assay: Growth inhibition of human HT-29 cells assessed as cell growth at 1 mM after 48 hrs by SRB assay; conditions: HT-29, 48 h, read-out: Activity
Malme-3M = assay: Growth inhibition of human MALME-3M cells assessed as cell growth at 1 mM after 48 hrs by SRB assay; conditions: read-out: Activity
SF-295 = assay: Growth inhibition of human SF295 cells assessed as cell growth at 1 mM after 48 hrs by SRB assay; conditions: SF-295, 48 h, read-out: Activity
DU-145 = assay: Growth inhibition of human DU145 cells assessed as cell growth at 0.1 uM after 48 hrs by SRB assay; conditions: DU-145, 48 h, read-out: Activity
[15] = read-out: LC50 (the source's name)
[16] = read-out: pLC50 (the source's name) (converted)

CNC(=O)NC[C@H]1O[C@@H](n2cnc3c(NC(=O)Nc4ccccc4)ncnc32)[C@H](O[Si](C)(C)C(C)(C)C)[C@@H]1O[Si](C)(C)C(C)(C)C
growth at 1000 µM (HCT-116): -100% | growth at 0.1 µM (SK-MEL-2 [1]): 108% | growth at 1000 µM (NCI-H322M [2]): 21% | growth at 10 µM (UACC-62 [3]): 90% | growth at 10 µM (IGROV-1): 98% | growth at 100 µM (OVCAR-8 [4]): 13% | growth at 0.1 µM (ACHN [5]): 107% | growth at 1000 µM (SK-MEL-2 [6]): -67% | growth at 0.1 µM (NCI-H226): 102% | growth at 100 µM (CAKI-1): -11% | growth at 1 µM (UACC-62 [7]): 100% | growth at 1000 µM (UACC-257): -24% | GI50 (TK-10 [8]; read-out: GI50): 4.29 µM | CC50 (TK-10 [8]; [15]): > 100 µM | TGI (TK-10 [8]; read-out: TGI): 72.6 µM | GI50 (TK-10 [8]; read-out: pGI50 (converted)): 4.27 µM | CC50 (TK-10 [8]; [16]): > 100 µM | TGI (TK-10 [8]; read-out: pTGI (converted)): 72.4 µM | growth at 10 µM (UO-31): 84% | GI50 (SK-MEL-2 [9]; read-out: GI50): 2.45 µM | CC50 (SK-MEL-2 [9]; [15]): > 100 µM | TGI (SK-MEL-2 [9]; read-out: TGI): 55.4 µM | GI50 (SK-MEL-2 [9]; read-out: pGI50 (converted)): 2.45 µM | CC50 (SK-MEL-2 [9]; [16]): 28.2 µM | TGI (SK-MEL-2 [9]; read-out: pTGI (converted)): 5.5 µM | growth at 100 µM (HCT-15): 11% | growth at 1 µM (OVCAR-5): 99% | growth at 0.1 µM (TK-10 [10]): 110% | growth at 0.1 µM (SNB-75): 94% | growth at 10 µM (ACHN [11]): 105% | GI50 (MDA-MB-231; read-out: GI50): 2.61 µM | CC50 (MDA-MB-231; [15]): 28.3 µM | TGI (MDA-MB-231; read-out: TGI): 6.12 µM | GI50 (MDA-MB-231; read-out: pGI50 (converted)): 2.63 µM | CC50 (MDA-MB-231; [16]): 28.2 µM | TGI (MDA-MB-231; read-out: pTGI (converted)): 6.17 µM | GI50 (OVCAR-8 [12]; read-out: GI50): 4.01 µM | CC50 (OVCAR-8 [12]; [15]): > 100 µM | TGI (OVCAR-8 [12]; read-out: TGI): 40.1 µM | GI50 (OVCAR-8 [12]; read-out: pGI50 (converted)): 3.98 µM | CC50 (OVCAR-8 [12]; [16]): > 100 µM | TGI (OVCAR-8 [12]; read-out: pTGI (converted)): 39.8 µM | growth at 1000 µM (NCI-H522): -49% | growth at 100 µM (NCI-H322M [13]): 39% | GI50 (SN12C; read-out: GI50): 1.81 µM | CC50 (SN12C; [15]): 6.29 µM | TGI (SN12C; read-out: TGI): 3.38 µM | GI50 (SN12C; read-out: pGI50 (converted)): 1.82 µM | CC50 (SN12C; [16]): 6.31 µM | TGI (SN12C; read-out: pTGI (converted)): 3.39 µM | growth at 10 µM [14]: 98% | GI50 (RXF 393; read-out: GI50): 2.14 µM | CC50 (RXF 393; [15]): 7.5 µM | TGI (RXF 393; read-out: TGI): 4.01 µM | GI50 (RXF 393; read-out: pGI50 (converted)): 2.14 µM | CC50 (RXF 393; [16]): 7.41 µM | TGI (RXF 393; read-out: pTGI (converted)): 3.98 µM | growth at 1000 µM (HT-29): -100% | growth at 1000 µM (Malme-3M): -48% | growth at 1000 µM (SF-295): -7% | growth at 0.1 µM (DU-145): 103%
